ChEMBL document CHEMBL1667756, “Design, synthesis and antibacterial activity of 3-methylenepyrrolidine formyl hydroxyamino derivatives as novel peptide deformylase inhibitors” (2011)
Converted amounts (≈) assume the structure as drawn.

Tests used:
Format in all cases: functional
[1] = test system: Staphylococcus aureus; test: Antibacterial activity against methicillin-resistant Staphylococcus aureus ATCC 43300 by broth micro dilution technique
[2] = test system: Staphylococcus epidermidis; test: Antibacterial activity against methicillin-resistant Staphylococcus epidermidis ATCC 12228 by broth micro dilution technique
[3] = test system: Staphylococcus aureus; test: Antibacterial activity against methicillin-susceptible Staphylococcus aureus ATCC 29213 by broth micro dilution technique
[4] = test system: Staphylococcus aureus; test: Antibacterial activity against Staphylococcus aureus ATCC 25923 by broth micro dilution technique
[5] = test system: Moraxella catarrhalis; test: Antibacterial activity against Moraxella catarrhalis 1502 by broth micro dilution technique
[6] = test system: Streptococcus pyogenes; test: Antibacterial activity against Streptococcus pyogenes 1307006P by broth micro dilution technique
[7] = test system: Staphylococcus aureus; test: Antibacterial activity against Staphylococcus aureus OXFORD by broth micro dilution technique
[8] = test system: Haemophilus influenzae; test: Antibacterial activity against Haemophilus influenzae Q1 by broth micro dilution technique
[9] = test system: Streptococcus pneumoniae; test: Antibacterial activity against Streptococcus pneumoniae N1387 by broth micro dilution technique
[10] = test system: Haemophilus influenzae; test: Antibacterial activity against Haemophilus influenzae H128 by broth micro dilution technique
[11] = test system: Staphylococcus aureus; test: Antibacterial activity against Staphylococcus aureus WCUH29 by broth micro dilution technique
[12] = test system: Escherichia coli; test: Antibacterial activity against Escherichia coli by broth micro dilution technique
[13] = test system: Enterococcus faecalis; test: Antibacterial activity against Enterococcus faecalis by broth micro dilution technique
[14] = test system: Streptococcus pneumoniae; test: Antibacterial activity against Streptococcus pneumoniae 1629 by broth micro dilution technique
[15] = test system: Streptococcus pneumoniae; test: Antibacterial activity against Streptococcus pneumoniae ERY2 by broth micro dilution technique
[16] = test system: Haemophilus influenzae; test: Antibacterial activity against AcrA deficient Haemophilus influenzae H128 by broth micro dilution technique
[17] = test system: Streptococcus pyogenes; test: Antibacterial activity against Streptococcus pyogenes 1308007P by broth micro dilution technique
[18] = test system: Enterococcus faecium; test: Antibacterial activity against Enterococcus faecium X7501 by broth micro dilution technique
[19] = test system: Staphylococcus epidermidis; test: Antibacterial activity against methicillin-resistant Staphylococcus epidermidis by agar dilution method
[20] = test system: Staphylococcus aureus; test: Antibacterial activity against methicillin-resistant Staphylococcus aureus by agar dilution method
[21] = test system: Streptococcus pneumoniae; test: Antibacterial activity against penicillin-susceptible Streptococcus pneumoniae by agar dilution method
[22] = test system: Streptococcus pneumoniae; test: Antibacterial activity against penicillin-resistant Streptococcus pneumoniae by agar dilution method
[23] = test system: Staphylococcus aureus; test: Antibacterial activity against methicillin-susceptible Staphylococcus aureus by agar dilution method
[24] = test system: Staphylococcus epidermidis; test: Antibacterial activity against methicillin-susceptible Staphylococcus epidermidis by agar dilution method
[25] = test system: Haemophilus influenzae; test: Antibacterial activity against Haemophilus influenzae by agar dilution method

Question: How did the MIC [1] turn out when `C=C1C[C@@H](C(=O)N2CCOCC2)N(C(=O)[C@H](CCCC)CN(O)C=O)C1` was run?
Answer: 8 µg/mL (≈ 21.8 µM)

Question: What about the MIC [2] of the same compound?
Answer: 16 µg/mL (≈ 43.5 µM)

Question: And the MIC [3]?
Answer: > 64 µg/mL

Question: What about the MIC [4] of the same compound?
Answer: 8 µg/mL (≈ 21.8 µM)

Question: `C=C1C[C@@H](C(=O)Nc2ccccc2)N(C(=O)[C@H](CCCC)CN(O)C=O)C1` was tested. Which MIC [1] did it give?
Answer: 1 µg/mL (≈ 2.68 µM)

Question: And the MIC [2]?
Answer: 2 µg/mL (≈ 5.36 µM)

Question: And the MIC [3]?
Answer: 8 µg/mL (≈ 21.4 µM)

Question: And the MIC [4]?
Answer: 2 µg/mL (≈ 5.36 µM)

Question: What does the source list for `C=C1C[C@@H](C(=O)Nc2ccc(F)cc2)N(C(=O)[C@H](CCCC)CN(O)C=O)C1`?
Answer: MIC [1]: 0.5 µg/mL (≈ 1.28 µM); MIC [2]: 1 µg/mL (≈ 2.55 µM); MIC [3]: 4 µg/mL (≈ 10.2 µM); MIC [4]: 1 µg/mL (≈ 2.55 µM)

Question: `C=C1C[C@@H](C(=O)Nc2ccc(O)cc2)N(C(=O)[C@H](CCCC)CN(O)C=O)C1` was tested. Which MIC [1] did it give?
Answer: 4 µg/mL (≈ 10.3 µM)

Question: And the MIC [2]?
Answer: 8 µg/mL (≈ 20.5 µM)

Question: What about the MIC [3] of the same compound?
Answer: 32 µg/mL (≈ 82.2 µM)

Question: What about the MIC [4] of the same compound?
Answer: 8 µg/mL (≈ 20.5 µM)

Question: With `C=C1C[C@@H](C(=O)Nc2ccc(F)cn2)N(C(=O)[C@H](CCCC)CN(O)C=O)C1` as the compound, how does the MIC [5] read?
Answer: 0.25 µg/mL (≈ 0.637 µM)

Question: And the MIC [6]?
Answer: 4 µg/mL (≈ 10.2 µM)

Question: What about the MIC [7] of the same compound?
Answer: 4 µg/mL (≈ 10.2 µM)

Question: And the MIC [8]?
Answer: 16 µg/mL (≈ 40.8 µM)

Question: What about the MIC [9] of the same compound?
Answer: 4 µg/mL (≈ 10.2 µM)

Question: What about the MIC [1] of the same compound?
Answer: 0.125 µg/mL (≈ 0.319 µM)

Question: What about the MIC [10] of the same compound?
Answer: 16 µg/mL (≈ 40.8 µM)

Question: What about the MIC [11] of the same compound?
Answer: 0.5 µg/mL (≈ 1.27 µM)

Question: And the MIC [12]?
Answer: > 64 µg/mL

Question: And the MIC [2]?
Answer: 0.5 µg/mL (≈ 1.27 µM)

Question: And the MIC [13]?
Answer: 32 µg/mL (≈ 81.5 µM)

Question: What about the MIC [14] of the same compound?
Answer: 16 µg/mL (≈ 40.8 µM)

Question: What about the MIC [15] of the same compound?
Answer: 8 µg/mL (≈ 20.4 µM)

Question: What about the MIC [16] of the same compound?
Answer: 0.5 µg/mL (≈ 1.27 µM)

Question: And the MIC [17]?
Answer: 4 µg/mL (≈ 10.2 µM)

Question: What about the MIC [3] of the same compound?
Answer: 2 µg/mL (≈ 5.1 µM)

Question: And the MIC [4]?
Answer: 1 µg/mL (≈ 2.55 µM)

Question: And the MIC [18]?
Answer: 4 µg/mL (≈ 10.2 µM)

Question: With `C=C1C[C@@H](C(=O)Nc2ccc(F)c[n+]2[O-])N(C(=O)[C@H](CCCC)CN(O)C=O)C1` as the compound, how does the MIC [1] read?
Answer: 1 µg/mL (≈ 2.45 µM)

Question: What about the MIC [2] of the same compound?
Answer: 2 µg/mL (≈ 4.9 µM)

Question: And the MIC [3]?
Answer: 4 µg/mL (≈ 9.79 µM)

Question: And the MIC [4]?
Answer: 2 µg/mL (≈ 4.9 µM)

Question: How did the MIC [19] turn out when `C=C1C[C@@H](C(=O)Nc2ncc(C)s2)N(C(=O)[C@H](CCCC)CN(O)C=O)C1` was run?
Answer: 2 µg/mL (≈ 5.07 µM)

Question: And the MIC [20]?
Answer: 0.5 µg/mL (≈ 1.27 µM)

Question: And the MIC [5]?
Answer: ≤ 0.06 µg/mL

Question: What about the MIC [6] of the same compound?
Answer: 2 µg/mL (≈ 5.07 µM)

Question: And the MIC [21]?
Answer: 0.25 µg/mL (≈ 0.634 µM)

Question: And the MIC [7]?
Answer: 0.5 µg/mL (≈ 1.27 µM)

Question: What about the MIC [8] of the same compound?
Answer: 4 µg/mL (≈ 10.1 µM)

Question: What about the MIC [9] of the same compound?
Answer: 1 µg/mL (≈ 2.53 µM)

Question: And the MIC [1]?
Answer: 0.125 µg/mL (≈ 0.317 µM)

Question: What about the MIC [10] of the same compound?
Answer: 4 µg/mL (≈ 10.1 µM)

Question: And the MIC [11]?
Answer: 0.125 µg/mL (≈ 0.317 µM)

Question: And the MIC [12]?
Answer: 64 µg/mL (≈ 162 µM)

Question: What about the MIC [22] of the same compound?
Answer: 0.5 µg/mL (≈ 1.27 µM)

Question: And the MIC [23]?
Answer: 1 µg/mL (≈ 2.53 µM)

Question: What about the MIC [2] of the same compound?
Answer: 0.125 µg/mL (≈ 0.317 µM)

Question: What about the MIC [13] of the same compound?
Answer: 4 µg/mL (≈ 10.1 µM)

Question: And the MIC [14]?
Answer: 2 µg/mL (≈ 5.07 µM)

Question: And the MIC [15]?
Answer: 2 µg/mL (≈ 5.07 µM)

Question: And the MIC [16]?
Answer: ≤ 0.06 µg/mL

Question: And the MIC [24]?
Answer: 1 µg/mL (≈ 2.53 µM)

Question: And the MIC [17]?
Answer: 2 µg/mL (≈ 5.07 µM)

Question: And the MIC [25]?
Answer: 4 µg/mL (≈ 10.1 µM)

Question: What about the MIC [3] of the same compound?
Answer: 1 µg/mL (≈ 2.53 µM)

Question: What about the MIC [4] of the same compound?
Answer: 0.5 µg/mL (≈ 1.27 µM)

Question: What about the MIC [18] of the same compound?
Answer: 2 µg/mL (≈ 5.07 µM)

Question: What does the source list for `C=C1C[C@@H](C(=O)N2CCOCC2)N(C(=O)[C@H](CC2CCCC2)CN(O)C=O)C1`?
Answer: MIC [1]: 2 µg/mL (≈ 5.08 µM); MIC [2]: 4 µg/mL (≈ 10.2 µM); MIC [3]: 8 µg/mL (≈ 20.3 µM); MIC [4]: 4 µg/mL (≈ 10.2 µM)

Question: `C=C1C[C@@H](C(=O)NC2CC2)N(C(=O)[C@H](CC2CCCC2)CN(O)C=O)C1` was tested. Which MIC [19] did it give?
Answer: 4 µg/mL (≈ 11 µM)

Question: And the MIC [20]?
Answer: 0.5 µg/mL (≈ 1.38 µM)

Question: And the MIC [21]?
Answer: 1 µg/mL (≈ 2.75 µM)

Question: What about the MIC [1] of the same compound?
Answer: 1 µg/mL (≈ 2.75 µM)

Question: What about the MIC [22] of the same compound?
Answer: 1 µg/mL (≈ 2.75 µM)

Question: What about the MIC [23] of the same compound?
Answer: 2 µg/mL (≈ 5.5 µM)

Question: What about the MIC [2] of the same compound?
Answer: 4 µg/mL (≈ 11 µM)

Question: What about the MIC [24] of the same compound?
Answer: 1 µg/mL (≈ 2.75 µM)

Question: And the MIC [25]?
Answer: 4 µg/mL (≈ 11 µM)

Question: What about the MIC [3] of the same compound?
Answer: 8 µg/mL (≈ 22 µM)

Question: What about the MIC [4] of the same compound?
Answer: 4 µg/mL (≈ 11 µM)

Question: For `C=C1C[C@@H](C(=O)Nc2ccccc2)N(C(=O)[C@H](CC2CCCC2)CN(O)C=O)C1`, which MIC [1] is on record?
Answer: 0.25 µg/mL (≈ 0.626 µM)

Question: What about the MIC [2] of the same compound?
Answer: 0.5 µg/mL (≈ 1.25 µM)

Question: And the MIC [3]?
Answer: 1 µg/mL (≈ 2.5 µM)

Question: And the MIC [4]?
Answer: 0.5 µg/mL (≈ 1.25 µM)
